According to PMC3071371, “Trypanosoma brucei Glycogen Synthase Kinase-3, A Target for Anti-Trypanosomal Drug Development: A Public-Private Partnership to Identify Novel Leads” (PLoS Neglected Tropical Diseases, 2011):
pEC50, pIC50: −log10 of the molar value. “Also recorded” adds a separate entry of the source.

Legend:
TbruGSK-3 short = molecular target: T1, TbruGSK-3 short (Trypanosoma brucei brucei, UniProt Q388M1); experiment: TbruGSK-3 short Kinase-Glo luminescent ATP depletion assay; format: biochemical; details: mean of at least 2 replicates; 2 µM ATP; read-out: Tbru GSK-3 short IC50
T1 construct: made in house
T1 sequence (Q388M1 1-352): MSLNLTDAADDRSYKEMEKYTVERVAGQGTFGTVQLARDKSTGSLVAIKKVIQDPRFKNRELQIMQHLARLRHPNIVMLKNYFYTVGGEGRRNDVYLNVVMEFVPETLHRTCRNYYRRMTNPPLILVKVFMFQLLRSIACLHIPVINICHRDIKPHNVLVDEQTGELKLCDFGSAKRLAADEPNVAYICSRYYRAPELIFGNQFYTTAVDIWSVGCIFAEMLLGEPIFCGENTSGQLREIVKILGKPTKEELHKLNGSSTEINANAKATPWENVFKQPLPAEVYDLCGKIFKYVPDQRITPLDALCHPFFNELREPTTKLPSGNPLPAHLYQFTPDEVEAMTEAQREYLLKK
Text: Recombinant TbruGSK-3 short (accession number Tb10.161.3140) was produced at the University of Washington and shipped to Pfizer, Sandwich, UK for testing. Kinase-Glo reagent (Promega) was used as previously described. This luciferase coupled assay, which provides a luminescent quantification of ATP […] during the kinase reaction, was modified to a 384-well plate screening format. A selected library of 16,540 compounds comprising known HsGSK-3 beta inhibitors and close structural analogues was screened at 10 µM final assay concentration. Assay plates were prepared by dispensing 0.2 µL of compound (dissolved in 100% DMSO) from master plates into white 384-well plates (Greiner bio one). Primary screening was conducted in a 20 µL reaction volume. Enzyme was added to each well to a final concentration of 3.8 nM in a volume of 10 µl using a Multidrop Combi dispenser (Thermo Scientific) and the plates were incubated for 15 minutes at room temperature (RT). Glycogen synthase peptide 2 (BioGSP2; Sigma) and ATP, were dissolved in 20% acetonitrile and 1 M Tris-HCl pH 7.6 respectively, then diluted in assay buffer to a final concentration of 3.2 µM BioGSP2 and 2 µM ATP. The assay buffer consisted of 25 mM Tris-HCl pH 7.5, 10 mM MgCl2, 5 mM DTT, 0.1 mg/mL BSA, 2 U/mL Heparin and 10 µM EDTA. The reaction was initiated by adding 10 µL of the substrate mixture to each well and allowed to proceed at RT for 2 h. Twenty microlitres of Kinase-Glo reagent was added to quench the reaction. Luminescence was measured after 1 h at a 100 millisecond/well integration time using the Acquest Multimode plate reader (Molecular Devices). Each plate included a positive control (4 µM GW8510, Sigma) and negative control (1% DMSO). […] The data was analysed using Pfizer SIGHTS software and visualised using Spotfire software (TIBCO). Five separate 384-well plates were screened in duplicate to assess the assay reproducibility.

[1] = tested on: T. brucei trypomastigotes (Squib-427 strain); experiment: T. brucei blood stage proliferation, resazurin; format: cell-based; details: Trypanosoma brucei; blood stage form, 72 hours incubation; read-out: Tbru parasite EC50
Protocol: (§1) Compounds with TbruGSK-3 short IC50<100 nM were tested for their ability to inhibit the proliferation of T. brucei (blood stage form). Cytotoxicity testing against human fetal lung fibroblast MRC-5 cell line was also performed. Both assays were carried out with compound concentrations up to 64 µM at the Laboratory for Microbiology, Parasitology and Hygiene, University of Antwerp (www.ua.ac.be). Briefly, T. brucei trypomastigotes (Squib-427 strain, suramin-sensitive) were cultured in Hirumi-9 medium supplemented with 10% fetal calf serum at 1.5×10^4 trypomastigotes per well. Following 72 hours incubation, parasite growth was assessed fluorimetrically by addition of resazurin. For cytotoxicity evaluation, 10^4 MRC-5 cells/well were seeded onto the test plates containing the pre-diluted compounds and incubated at 37°C with 5% CO2 for 72 hours. Cell viability was determined fluorimetrically after addition of resazurin [24], [25]. Single point kinase panel screening was also conducted on selected compounds at 10 µM by Invitrogen (www.Invitrogen.com) and University of Dundee, UK (www.dundee.ac.uk).

HsGSK-3 beta = molecular target: T2, HsGSK-3 beta (Homo sapiens, UniProt P49841); experiment: Human GSK-3 beta inhibition (Pfizer data files or Omnia Kinase Assay); format: biochemical; details: recovered from Pfizer data files or Omnia Kinase Assay, mean of at least 2 replicates
T2 construct: purchased Invitrogen
Protocol: Human GSK-3 beta inhibition data (IC50) for many of the compounds were recovered from Pfizer data files. If historical data were not available, the compounds were tested in an assay using 10 nM HsGSK-3 beta (Invitrogen) using Omnia Kinase Assay (Invitrogen) according to the manufacturer's instructions. The reaction volume was 20 µL and a range of compound concentrations were tested, up to a maximum of 40 µM. Briefly, 5 µl of HsGSK-3 beta was dispensed into black 384 assay plates (Greiner bio one) containing 0.2 µl of compounds. The enzyme was incubated with the compounds for 15 minutes at 30°C then 15 µl of substrate mixture was added to each well to commence the reaction. The substrate mixture consisted of 2 µL each of 2× kinase reaction buffer, 10 µM Omina peptide substrate, 0.2 mM DTT and 10 µM ATP, and 7 µL of ultra pure water. The reaction was allowed to proceed for 30 minutes at 30°C. Increase in fluorescence levels indicating peptide phosphorylation by the enzyme was monitored using an Envision (PerkinElmer) with λex 360/λem 485 nm and the data were analysed using Pfizer software SIGHTS and Spotfire (TIBCO).

[2] = Cytotoxicity against MRC-5 cell line, resazurin; format: cell-based, human; details: human, MRC-5 fetal lung fibroblast cells; 72 hours incubation
Protocol: as §1

[3] = tested on: panel of approximately 40 human kinases; experiment: Single point human kinase panel screening; format: biochemical; details: 10 µM
Protocol: as §1

[4] = tested on: human fetal lung fibroblast MRC-5 cell line; experiment: Cytotoxicity against MRC-5 cell line, resazurin; format: cell-based; details: ratio of EC50s
Protocol: as §1

CaCo2 cell = CaCo2 cell flux assay; format: in vitro ADME; details: data not shown

T2 sequence (P49841 whole entry): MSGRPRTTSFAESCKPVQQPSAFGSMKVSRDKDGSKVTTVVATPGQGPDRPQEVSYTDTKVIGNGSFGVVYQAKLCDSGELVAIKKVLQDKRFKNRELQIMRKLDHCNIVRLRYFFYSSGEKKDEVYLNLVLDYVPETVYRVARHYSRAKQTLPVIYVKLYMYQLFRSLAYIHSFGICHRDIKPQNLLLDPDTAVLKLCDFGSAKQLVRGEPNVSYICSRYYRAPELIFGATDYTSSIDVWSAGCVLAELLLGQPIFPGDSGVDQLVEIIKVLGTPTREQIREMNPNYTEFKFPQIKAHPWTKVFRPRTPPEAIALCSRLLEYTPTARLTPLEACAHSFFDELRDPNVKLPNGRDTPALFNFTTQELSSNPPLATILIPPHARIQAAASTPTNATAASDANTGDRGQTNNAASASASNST

pIC50 (TbruGSK-3 short) | pEC50 [1] | pIC50 (HsGSK-3 beta) | number of other kinases with >50% inhibition [3] | cell permeability in CaCo2 cell flux assay (CaCo2 cell) | Structure (SMILES) | EC50 at 72 h [2] [µM] | human kinase panel specificity (in words) [3] | selectivity window between T. brucei activity and activity on MRC5 cells [4] [fold]
7.03 | 6.64 | 9.00 | – | – | CC(C)C(=O)Nc1cc([C@H]2C[C@@H](OC(=O)NCc3ccccc3Cl)C2)[nH]n1 [CE-324998] | 1.22 | – | –
6.22 | – | 5.37 | – | – | O=c1ccc2cnc(Nc3ccc(N4CCC(CCCO)CC4)cc3)nc2n1C1CCCC1 [compound 0181276] | – | relatively specific against the wider human kinase panel | –
7.24 | 6.89 | > 6.00 | – | – | Cc1cc2nc(N3CCc4nc[nH]c(=O)c4C3)nc(Nc3cc(C4CC4)[nH]n3)c2s1 [PF-00956933] | 2.17 | – | –
5.14 | – | 7.22 | 4 | – | O=c1ccc2cnc(Nc3ccccc3)nc2n1C1CC2CCC1C2 (centres unmarked) [compound 0180532] | – | – | –
7.15 | 6.89 | > 6.00 | – | – | CN(C)C[C@@H](NC(=O)c1ccc2[nH]nc(-c3nc4ccccc4[nH]3)c2c1)c1ccccc1 [PF-00744923] | 0.13 | – | –
7.68 | 5.57 | 7.34 | – | – | CCCC1=C(C#N)C(c2cccc3nonc23)c2cn[nH]c2N1 (centres unmarked) [CE-309608] | 16 | – | –
7.21 | 5.91 | 9.00 | 2 | – | O=C(NCc1ccccc1)O[C@H]1C[C@@H](c2cc(NC(=O)C3CCCCC3)n[nH]2)C1 [PF-04279731] | 1.47 | – | –
7.21 | 6.89 | 6.88 | – | – | Cc1cc(Nc2cc[nH]n2)nc(N(C)CCc2ccncc2)n1 [PF-01242377] | 1.18 | – | –
7.00 | 5.94 | 8.52 | – | – | O=C(NC1CCN(C(=O)Cc2ccccc2)C1)c1ccc2[nH]nc(-c3nc4ccccc4[nH]3)c2c1 (centres unmarked) [CE-317112] | 39.4 | – | 35
7.16 | 6.89 | – | – | – | CS(=O)(=O)c1ccc(S(=O)(=O)Nc2ccc3c(Cl)c(C(=O)N4CCc5ccccc5C4)sc3c2)cc1 [AG-02449] | 0.62 | – | –
7.03 | 5.98 | 8.30 | – | – | CC(C)C(=O)Nc1cc([C@H]2C[C@@H](OC(=O)NCc3cccc(C(F)(F)F)c3F)C2)[nH]n1 [CE-325011] | 2.32 | – | –
7.49 | 5.95 | 6.63 | – | – | O=C1NCCc2[nH]c(-c3ccnc(Nc4ccc(-n5cccn5)cc4)c3)cc21 [PF-04903528] | 1.13 | – | –
6.85 | < 4.60 | 7.49 | – | no detectable cell permeability | CCc1nn(CCC(=O)Nc2cc([C@H]3C[C@@H](NC(C)=O)C3)[nH]n2)c2ccccc12 [CE-160042] | – | highly specific and only inhibited HsGSK-3 beta; also recorded: no significant inhibition of any other kinases | –
7.72 | 6.89 | > 6.00 | – | – | CNC(=O)[C@@H]1CCCN1c1nc(Cc2cccc(C#N)c2)cc(Nc2cc(C3CC3)[nH]n2)n1 [PF-02368935] | 0.13 | – | –
7.17 | 5.61 | 8.52 | – | – | CCC(C(=O)Nc1cc([C@H]2C[C@@H](OC(=O)NCc3ccccn3)C2)[nH]n1)c1ccccc1 (some centres unmarked) [PF-00305135] | 0.93 | – | –
7.19 | 6.19 | 8.70 | – | – | CC(C)C(=O)Nc1cc([C@H]2C[C@@H](OC(=O)N(C)Cc3ccccc3)C2)[nH]n1 [CE-325692] | 4.67 | – | –
7.21 | 6.89 | 6.76 | – | – | CNCc1cncc(-c2ccc3[nH]nc(-c4nc5ccccc5[nH]4)c3c2)c1C [AG-024290] | 0.13 | – | –
